# Data taken from paper PMC11640836, “Aminomethylmorpholino Nucleosides as Novel Inhibitors of PARP1 and PARP2: Experimental and Molecular Modeling Analyses of Their Selectivity and Mechanism of Action” (International Journal of Molecular Sciences, 2024).
# Like-named read-outs stand apart in the source and are kept apart here.
# Key:
# PARP1-DNA complex [1] = target: T1, PARP1-DNA complex (Homo sapiens, UniProt P09874); test: Fluorescence anisotropy titration of FAM-labeled gap-DNA with PARP1; format: binding; settings: 120 µM inhibitor, absence vs presence
# T1 construct: made in house; host or cells: insect cells
# T1 sequence (P09874 whole entry, one chain of several): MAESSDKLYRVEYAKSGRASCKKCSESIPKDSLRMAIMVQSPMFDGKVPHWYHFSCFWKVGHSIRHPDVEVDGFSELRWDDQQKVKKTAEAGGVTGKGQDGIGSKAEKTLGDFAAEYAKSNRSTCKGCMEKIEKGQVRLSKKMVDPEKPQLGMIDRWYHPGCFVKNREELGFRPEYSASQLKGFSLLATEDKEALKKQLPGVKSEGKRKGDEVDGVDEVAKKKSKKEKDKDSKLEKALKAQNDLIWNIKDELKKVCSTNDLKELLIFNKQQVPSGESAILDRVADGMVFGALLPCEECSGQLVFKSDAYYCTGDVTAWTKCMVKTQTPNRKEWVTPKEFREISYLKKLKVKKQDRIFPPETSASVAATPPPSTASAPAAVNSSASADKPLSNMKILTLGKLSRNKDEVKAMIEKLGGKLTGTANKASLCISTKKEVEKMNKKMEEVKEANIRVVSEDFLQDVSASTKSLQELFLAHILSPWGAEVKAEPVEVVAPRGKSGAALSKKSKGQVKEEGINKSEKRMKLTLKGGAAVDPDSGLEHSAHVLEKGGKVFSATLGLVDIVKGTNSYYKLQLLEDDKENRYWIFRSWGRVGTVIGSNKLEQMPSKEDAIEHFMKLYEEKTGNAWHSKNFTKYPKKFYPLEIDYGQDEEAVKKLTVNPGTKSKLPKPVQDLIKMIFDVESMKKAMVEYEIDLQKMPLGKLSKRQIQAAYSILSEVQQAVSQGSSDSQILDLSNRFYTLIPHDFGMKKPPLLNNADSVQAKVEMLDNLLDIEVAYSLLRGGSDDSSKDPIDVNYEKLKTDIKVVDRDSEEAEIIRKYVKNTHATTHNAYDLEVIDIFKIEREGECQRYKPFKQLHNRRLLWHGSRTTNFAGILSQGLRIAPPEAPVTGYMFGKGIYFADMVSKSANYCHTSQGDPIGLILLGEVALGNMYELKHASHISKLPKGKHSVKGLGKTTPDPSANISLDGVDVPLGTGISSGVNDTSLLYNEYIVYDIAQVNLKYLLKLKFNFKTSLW
# Experimental: (§1) Fluorescence anisotropy measurements of FAM-labeled DNA were performed in the absence and presence of various concentrations of PARP1/PARP2 with or without sub-saturating concentrations of an inhibitor. […] The averaged values were used for the final plot, and EC50 values were determined with MARS Data Analysis software version 3.00 (BMG LABTECH, Ortenberg, Germany). The data were plotted (F vs. C) and fitted to a four-parameter equation, F = F0 + (F∞ − F0)/[1 + (EC50/C)^n], where F is the measured fluorescence anisotropy of a solution containing the labeled DNA at a given concentration (C) of protein, F0 is the fluorescence anisotropy of the solution of the labeled DNA alone, F∞ is the fluorescence anisotropy of the labeled DNA saturated with the protein, EC50 is the concentration of the protein where F − F0 = (F∞ − F0)/2, and n is the Hill coefficient, which denotes the slope of the nonlinear curve. The apparent rate constants (kobs values) of dissociation of the PARP1 (PARP2)-DNA complex during the PARylation reaction performed in the absence or presence of an inhibitor were estimated by fluorescence anisotropy measurements, as described previously. […] The kinetic data were fitted to an exponential curve to calculate kobs with MARS Data Analysis software. […]
# PARP1-DNA complex [2] = target: T1, PARP1-DNA complex; test: AutoPARylation-induced dissociation of the PARP1-DNA complex (fluorescence anisotropy kinetics); format: biochemical; settings: 120 µM H2N-Mor-T or 400 nM olaparib
# Experimental: as §1
# [3] = tested on: HeLa cell line (cervical cancer); test: Cell culture cytotoxicity assay (EZ4U/MTT), compounds alone and combined with hydrogen peroxide; settings: for Effect (H2O2 + PARP inhibitor combo) / Combination index (CI): Hela; for Combination index (CI): CompuSyn; for Combination index (CI) with H2O2, as stated in text: different concentrations of H2O2 and inhibitor, Hela cells
# Experimental: The cytotoxicity of the compounds and their combinations with a DNA damaging agent were examined against human cells from the HeLa cell line (cervical cancer) using an EZ4U/MTT colorimetric test (Biomedica, Vienna, Austria). […] The cells were grown in 96-well plates in DMEM medium (Gibco, Thermo Fisher Scientific, Waltham, MA, USA), with 1x GlutaMAX (Gibco, Thermo Fisher Scientific, Waltham, MA, USA), 50 IU/mL penicillin, 50 μg/mL streptomycin (MP Biome-dicals, Santa Ana, CA, USA), and in the presence of 10% fetal bovine serum (Biolot, Saint Petersburg, Russia) in a 5% CO2 atmosphere. After the formation of a 30–50% monolayer, the tested compounds were added to the medium to final concentrations specified in Figure 2 and Figure S4, and the cell culture was monitored for 3 days. […] The combination index (CI) values were calculated using CompuSyn software version 1.0.
# PARP2 = target: T2, PARP2 (Mus musculus, UniProt O88554); test: Steady-state kinetic analysis of the PARP2 enzymatic reaction; format: biochemical, murine
# T2 construct: made in house; host or cells: insect cells
# T2 sequence (O88554 whole entry): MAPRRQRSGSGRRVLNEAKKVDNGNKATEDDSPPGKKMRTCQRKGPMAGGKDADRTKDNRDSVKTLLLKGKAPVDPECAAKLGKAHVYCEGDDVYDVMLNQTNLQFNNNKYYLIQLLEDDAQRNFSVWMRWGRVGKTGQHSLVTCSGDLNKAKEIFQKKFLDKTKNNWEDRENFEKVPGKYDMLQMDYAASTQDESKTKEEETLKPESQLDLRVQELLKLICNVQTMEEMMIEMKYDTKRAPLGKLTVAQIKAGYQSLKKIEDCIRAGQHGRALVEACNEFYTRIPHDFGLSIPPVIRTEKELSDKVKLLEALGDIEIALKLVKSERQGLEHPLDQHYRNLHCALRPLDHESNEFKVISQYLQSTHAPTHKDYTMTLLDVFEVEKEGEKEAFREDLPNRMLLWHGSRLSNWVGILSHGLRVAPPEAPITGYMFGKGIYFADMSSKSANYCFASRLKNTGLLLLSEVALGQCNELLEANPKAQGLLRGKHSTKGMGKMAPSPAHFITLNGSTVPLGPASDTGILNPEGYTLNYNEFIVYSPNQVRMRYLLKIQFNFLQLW
# Experimental: The four efficient inhibitors of PARP1 (compounds 8, 12, 13, and 14) were further examined by detailed kinetic experiments to determine the type of inhibition and the inhibition constants. […] The kinetics experiments of the PARylation reaction were performed at varied concentrations of the NAD^+ substrate and three–four different fixed concentrations of the inhibitor. The kinetic parameters of the reaction (Vmax and KM) were calculated by fitting the Michaelis–Menten equation to the kinetic data. The type of inhibition was determined by analyzing the dependences of Vmax and KM on the concentration of the inhibitor in linearizing coordinates (Figure S3). All the compounds had decreased Vmax and increased KM values as the inhibitor concentration increased (panels A−E), indicating a mixed type of inhibition, which was further evidenced by the double reciprocal plots of kinetic data (panel F). From these experiments, the inhibition constants reflecting the affinity of inhibitors to the NAD^+ binding pocket of free enzymes were determined (Table 2).
# To determine the apparent maximum rate of enzymatic reaction (Vmax), Michaelis constant (KM), and possible inhibition mechanism, steady-state kinetic experiments were performed at […] fixed concentrations of the substrate, in the absence and presence of different fixed concentrations of the inhibitor. The standard reaction mixtures (10 μL) contained 100 μM, 300 μM, 500 μM, 1 mM, or 2 mM NAD^+; a tested PARP1/PARP2 inhibitor specified for each compound (Figure S3); the recombinant human enzyme PARP1 (200 nM) or murine PARP2 (800 nM); and reaction buffer components (specified in the previous subsection). The reaction was performed as described in the previous subsection. The raw data (kinetic curves) were obtained in three independent experiments and statistically processed with OriginPro 8.6.0 software. […]
# F) Graphical representation in double reciprocal plots. […]
# The Ki and Ki(2) values presented in Table 2 in the main text and Table S1 were calculated using the equations: […]
# PARP2-DNA complex [4] = target: T3, PARP2-DNA complex (Mus musculus, UniProt O88554); test: Fluorescence anisotropy titration of FAM-labeled gap-DNA with PARP2; format: binding, murine; settings: 240 µM inhibitor
# T3 construct: made in house; host or cells: insect cells
# T3 sequence (O88554 whole entry, one chain of several): as the sequence (O88554 whole entry) above
# Experimental: as §1
# PARP2-DNA complex [5] = target: T3, PARP2-DNA complex; test: AutoPARylation-induced dissociation of the PARP2-DNA complex (fluorescence anisotropy kinetics); format: biochemical, murine; settings: 240 µM H2N-Mor-U(I) or 800 nM olaparib
# Experimental: as §1
# [6] = H2O2 150 μM + inhibitor 1000 μM
# [7] = H2O2 250 μM + inhibitor 1000 μM
smiles,measurement,setting,value
Cc1cn([C@H]2CNC[C@@H](CN)O2)c(=O)[nH]c1=O [Compound 8],Effect of inhibitor on EC50 of the PARP1–DNA complex,PARP1-DNA complex [1],almost the same
same,Inhibition of dissociation of the PARP1 complex with DNA,PARP1-DNA complex [2]; 0.4 mM NAD+,~ 2 fold
same,Inhibition of dissociation of the PARP1 complex with DNA,PARP1-DNA complex [2]; 1.4 mM NAD+,~ 1.5 fold
same,Effect (H2O2 + PARP inhibitor combo),[3]; H2O2 30 μM + inhibitor 100 μM,0.15
same,Combination index (CI),[3]; H2O2 30 μM + inhibitor 100 μM,2.596
same,Effect (H2O2 + PARP inhibitor combo),[3]; H2O2 30 μM + inhibitor 1000 μM,0.46
same,Combination index (CI),[3]; H2O2 30 μM + inhibitor 1000 μM,0.6254
same,Effect (H2O2 + PARP inhibitor combo),[3]; H2O2 50 μM + inhibitor 100 μM,0.21
same,Combination index (CI),[3]; H2O2 50 μM + inhibitor 100 μM,1.707
same,Effect (H2O2 + PARP inhibitor combo),[3]; H2O2 50 μM + inhibitor 1000 μM,0.59
same,Combination index (CI),[3]; H2O2 50 μM + inhibitor 1000 μM,0.2634
same,Effect (H2O2 + PARP inhibitor combo),[3]; H2O2 90 μM + inhibitor 100 μM,0.48
same,Combination index (CI),[3]; H2O2 90 μM + inhibitor 100 μM,0.375
same,Effect (H2O2 + PARP inhibitor combo),[3]; H2O2 90 μM + inhibitor 1000 μM,0.68
same,Combination index (CI),[3]; H2O2 90 μM + inhibitor 1000 μM,0.1724
same,Effect (H2O2 + PARP inhibitor combo),[3]; H2O2 150 μM + inhibitor 100 μM,0.61
same,Combination index (CI),[3]; H2O2 150 μM + inhibitor 100 μM,0.2716
same,Effect (H2O2 + PARP inhibitor combo),[3]; [6],0.79
same,Combination index (CI),[3]; [6],0.09406
same,Effect (H2O2 + PARP inhibitor combo),[3]; H2O2 250 μM + inhibitor 100 μM,0.94
same,Combination index (CI),[3]; H2O2 250 μM + inhibitor 100 μM,0.01519
same,Effect (H2O2 + PARP inhibitor combo),[3]; [7],0.92
same,Combination index (CI),[3]; [7],0.02575
same,"Combination index (CI) with H2O2, as stated in text",[3],less than one
NC[C@@H]1CNC[C@H](n2cc(I)c(=O)[nH]c2=O)O1 [Compound 14],Type of inhibition,"PARP2; Vmax decreased, KM increased",mixed-type inhibition
same,Ki,"PARP2; mixed-type inhibition, read-out: Ki (affinity for the free enzyme)",120 ± 23 µM
same,Ki,PARP2; read-out: Ki(2) (affinity for the enzyme complex with NAD+ substrate),400 ± 70 µM
same,Effect of inhibitor on the stability of the PARP2–DNA complex,PARP2-DNA complex [4],No statistically significant effect
same,Inhibition of dissociation of the PARP2 complex with DNA,PARP2-DNA complex [5]; 0.4 mM NAD+,~ 2 fold
same,Inhibition of dissociation of the PARP2 complex with DNA,PARP2-DNA complex [5]; 1.4 mM NAD+,~ 1.5 fold
same,Effect (H2O2 + PARP inhibitor combo),[3]; H2O2 30 μM + inhibitor 100 μM,0.46
same,Combination index (CI),[3]; H2O2 30 μM + inhibitor 100 μM,0.6331
same,Effect (H2O2 + PARP inhibitor combo),[3]; H2O2 30 μM + inhibitor 1000 μM,0.3
same,Combination index (CI),[3]; H2O2 30 μM + inhibitor 1000 μM,0.3003
same,Effect (H2O2 + PARP inhibitor combo),[3]; H2O2 50 μM + inhibitor 100 μM,0.47
same,Combination index (CI),[3]; H2O2 50 μM + inhibitor 100 μM,0.5789
same,Effect (H2O2 + PARP inhibitor combo),[3]; H2O2 50 μM + inhibitor 1000 μM,0.32
same,Combination index (CI),[3]; H2O2 50 μM + inhibitor 1000 μM,0.2452
same,Effect (H2O2 + PARP inhibitor combo),[3]; H2O2 90 μM + inhibitor 100 μM,0.6
same,Combination index (CI),[3]; H2O2 90 μM + inhibitor 100 μM,0.1778
same,Effect (H2O2 + PARP inhibitor combo),[3]; H2O2 90 μM + inhibitor 1000 μM,0.5
same,Combination index (CI),[3]; H2O2 90 μM + inhibitor 1000 μM,0.04618
same,Effect (H2O2 + PARP inhibitor combo),[3]; H2O2 150 μM + inhibitor 100 μM,0.68
same,Combination index (CI),[3]; H2O2 150 μM + inhibitor 100 μM,0.08158
same,Effect (H2O2 + PARP inhibitor combo),[3]; [6],0.61
same,Combination index (CI),[3]; [6],0.01767
same,Effect (H2O2 + PARP inhibitor combo),[3]; H2O2 250 μM + inhibitor 100 μM,0.82
same,Combination index (CI),[3]; H2O2 250 μM + inhibitor 100 μM,0.01487
same,Effect (H2O2 + PARP inhibitor combo),[3]; [7],0.84
same,Combination index (CI),[3]; [7],0.00135
same,"Combination index (CI) with H2O2, as stated in text",[3],less than one
